Peptide text beside a SMILES is read from it.
System: Acinetobacter baumannii isolate 10
Test: In vivo antimicrobial activity, intranasal lung infection, H&E staining
Design: species or system BALB/c mice
Details: mice intranasally infected with A. baumannii isolate 10, peptide intranasal, day 3
Method: Among the peptides prepared in <Example 1>, dCATH-A7 was selected to evaluate in vivo antimicrobial activity.
Among the antibiotic-resistant strains, Acinetobacter baumannii isolate 10 was selected for the experiment. The bacteria were washed three times with PBS buffer prior to use. After a one-week acclimation period, BALB/c mice (6 weeks old) were intranasally infected with 20 μL of a 1×10^9 CFU/mL bacterial suspension. Following infection, the peptide was prepared at a concentration of 5 mg/mL and administered intranasally. On day 3, lung tissue samples were collected and subjected to hematoxylin and eosin (H&E) staining to assess tissue damage.

`CC[C@H](C)[C@H](NC(=O)[C@H](C)NC(=O)[C@H](CCCCN)NC(=O)[C@H](CCCCN)NC(=O)[C@@H](NC(=O)[C@H](CC(C)C)NC(=O)[C@H](CCC(N)=O)NC(=O)[C@H](C)NC(=O)[C@H](C)NC(=O)[C@H](CCCNC(=N)N)NC(=O)[C@@H](N)CCCCN)C(C)C)C(=O)N[C@@H](CCCCN)C(=O)N[C@@H](CCCCN)C(=O)N[C@@H](Cc1ccc(O)cc1)C(=O)N[C@@H](CCCNC(=N)N)C(=O)N[C@@H](C)C(=O)N[C@@H](Cc1c[nH]c2ccccc12)C(=O)N[C@@H](CCCCN)C(N)=O` [dCATH-A7, KRAAQLVKKAIKKYRAWK] (H-KRAAQLVKKAIKKYRAWK-NH2; N-terminus assumed) was tested, and the “lung tissue damage (H&E staining)” value was “minimal fibrosis and overall reduced tissue damage”.
